# Laboratory results from US10231953B2, “Inhibitors of bromodomains” (Zenith Epigenetics Ltd., priority 2014, dated 2019).
# “Also recorded” adds a separate entry of the source.
# Columns and labels:
# [1] = molecular target: T1, Brd4 bromodomain 1 (BRD4(1)) (Homo sapiens, UniProt O60885); experiment: Inhibition of tetra-acetylated histone H4 binding to BET bromodomain, HTRF/FRET; conditions: HTRF, 2 h incubation at room temperature
# T1 construct: made in house; host or cells: E. coli BL21(DE3)
# Procedure: Proteins are cloned and overexpressed with a N-terminal 6×His tag, then purified by nickel affinity followed by size exclusion chromatography. Briefly, E. coli BL21(DE3) cells are transformed with a recombinant expression vector encoding N-terminally Nickel affinity tagged bromodomains from Brd2, Brd3, Brd4. Cell cultures were incubated at 37° C. with shaking to the appropriate density and induced overnight with IPTG. The supernatant of lysed cells was loaded onto Ni-IDA column for purification. Eluted protein was pooled, concentrated and further purified by size exclusion chromatography. Fractions representing monomeric protein were pooled, concentrated, aliquoted, and frozen at −80° C. for use in subsequent experiments.
# Binding of tetra-acetylated histone H4 and BET bromodomains is confirmed by a Homogenous Time Resolved Fluorescence Resonance Energy Transfer (HTRF®) method, N-terminally His-tagged bromodomains (200 nM) and biotinylated tetra-acetylated historic H4 peptide (25-50 nM, Millipore) are incubated in the presence of Europium Cryptate-labeled streptavidin (Cisbio Cat. #610SAKLB) and XL665-labeled monoclonal anti-His antibody (Cisbio Cat. #61HISXLB) in a white 96 well microtiter plate (Greiner). For inhibition assays, serially diluted test compound is added to these reactions in a 0.2% final concentration of DMSO. Duplicate wells are used for each concentration tested. Final buffer concentrations are 30 mM HEPES pH 7.4, 30 mM NaCl, 0.3 mM CHAPS, 20 mM phosphate pH 7.0, 320 mM KF, 0.08% BSA. After a 2 h incubation at room temperature, fluorescence is measured at 665 and 620 nm with a SynergyH4 plate reader (Biotek). The binding inhibitory activity is shown by a decrease in 665 nm relative to 620 nm fluorescence. IC50 values are determined from a dose response curve.
# [2] = tested on: hIL-6 mRNA; experiment: Inhibition of hIL-6 mRNA transcription in LPS-stimulated U937 cells; assay type: cell-based; conditions: Homo sapiens, U-937; U937 cells differentiated with PMA, 1 h pretreatment, LPS 3 h; read-out: IL-6 activity
# Procedure: Human leukemic monocyte lymphoma U937 cells (CRL-1593.2) were plated at a density of 3.2×10^4 cells per well in a 96-well plate in 100 μL RPMI-1640 containing 10% FBS and penicillin/streptomycin, and differentiated into macrophages for 3 days in 60 ng/mL PMA ([…]) at 37° C. in 5% CO2 prior to the addition of compound. The cells were pretreated for 1 h with increasing concentrations of test compound in 0.1% DMSO prior to stimulation with 1 ug/mL lipopolysaccharide from Escherichia coli. Triplicate wells were used for each concentration. The cells were incubated at 37° C., 5% CO2 for 3 h before the cells were harvested. At time of harvest, media was removed and cells were rinsed in 200 μL PBS. Cells were harvested using the mRNA Catcher PLUS kit according to manufacturer's instructions. The eluted mRNA was then used in a one-step quantitative real-time PCR reaction using components of the RNA UltraSense™ One-Step Kit (Life Technologies) together with Applied Biosystems TaqMan® primer-probes for hIL-6 and Cyclophilin. Real-time PCR plates were run on a ViiA™7 real time PCR machine (Applied Biosystems), data was analyzed, normalizing the Ct values for hIL-6 to an internal control, prior to determining the fold expression of each sample, relative to the control.
# [3] = tested on: Human AML MV-4-11 cells; experiment: Inhibition of cell proliferation in cancer cell lines; assay type: cell-based; conditions: MV4-11, 72 h
# Procedure: MV4-11 cells (CRL-9591) were plated at a density of 5×10^4 cells per well in 96 well flat bottom plates and treated with increasing concentrations of test compound or DMSO (0.1%) in IMDM media containing 10% FBS and penicillin/streptomycin. Triplicate wells were used for each concentration and a well containing only media was used as a control. Plates were incubated at 37° C., 5% CO2 for 72 h before adding 20 μL of the CellTiter Aqueous One Solution (Promega) to each well and incubated at 37° C., 5% CO2 for an additional 3-4 h. The absorbance was read at 490 nm in a spectrophotometer and the percentage of cell titer relative to DMSO-treated cells was calculated after correcting for background by subtracting the blank well's signal. IC50 values were calculated using the GraphPad Prism software.
# [4] = tested on: c-myc; experiment: Inhibition of cMYC expression in cancer cell lines (mRNA, real-time PCR); assay type: cell-based; conditions: Human AML MV4-11 cells, 3 h
# Procedure: MV4-11 cells (CRL-9591) were plated at a density of 2.5×10^4 cells per well in 96 well U-bottom plates and treated with increasing concentrations of test compound or DMSO) (0.1%) in IMDM media containing 10% FBS and penicillin/streptomycin, and incubated for 3 h at 37° C. Triplicate wells were used for each concentration. Cells were pelleted by centrifugation and harvested using the mRNA Catcher PLUS kit according to manufacturer's instructions. The eluted mRNA isolated was then used in a one-step quantitative real-time PCR reaction, using components of the RNA UltraSense™ One-Step Kit (Life Technologies) together with Applied Biosystems TaqMan® primer-probes for cMYC and Cyclophilin. Real-time PCR plates were run on a ViiA™7 real time PCR machine (Applied Biosystems), data was analyzed, normalizing the Ct values for cMYC to an internal control, prior to determining the fold expression of each sample, relative to the control.
# [5] = tested on: MV4-11 cells; experiment: Washout proliferation: effect of covalent binding on durability of proliferation; assay type: cell-based, Human; conditions: IC90 concentration for 24 h, then washout; for Percent proliferation relative to DMSO, 24 h: 24 h post washout; for Percent proliferation relative to DMSO, 48 h: 48 h post washout; for Percent proliferation relative to DMSO, 72 h: 72 h post washout
# Procedure: MV4-11 cells (CRL-9591) were plated at a density of 5×10^4 cells per well in 96 well flat bottom plates and treated with IC90 concentration of covalent vs. non-covalent control compound or DMSO (0.1%) in IMDM media containing 10% FBS and penicillin/streptomycin. Triplicate wells were used for each concentration and a well containing only media is used as a control. Plates were incubated at 37° C., 5% CO2 for 24 h after which the compounds were removed, replaced with media, and proliferation was measured at 24, 48 and 72 hours post washout by adding 20 μL of the Cell Titer Aqueous One Solution (Promega) to each well and incubated at 37° C., 5% CO2 for an additional 3-4 h. The absorbance was read at 490 nm in a spectrophotometer and the percentage of cell titer relative to DMSO-treated cells was calculated after correcting for background by subtracting the blank well's signal. IC50 values are calculated using the GraphPad Prism software.
# [6] = tested on: BET bromodomains; experiment: Thermal shift assay to monitor covalent binding to BET bromodomains; conditions: 100 μM compound, 5 μM protein, 30 minutes or 4 hours at room temperature
# Procedure: 5 μM of purified bromodomain protein was incubated with 5× SYPRO® Orange (Molecular Probes) at a final concentration of 20 mM HEPES pH 7.4, 100 mM NaCl in the presence of 100 μM compound or DMSO (0.2%) in a fast 96 well optical plate (Applied Biosystems). Samples were incubated at room temperature for 30 minutes or 4 hours and ramped from 25° C. to 95° C. in a ViiA7 real-time PCR machine (Applied Biosystems). The resulting fluorescence data was analyzed and melting temperatures calculated using Protein Thermal Shift™ Software v1.0 (Life Technologies). A thermal shift indicates covalent binding of the inhibitor to the protein.
structure (smiles),measurement,setting,value
"Cc1noc(C)c1-c1cnc2nc(C)n(Cc3ccc(C(=O)CCl)cc3)c2c1 [Example 6, 2-Chloro-1-(4-((6-(3,5-dimethylisoxazol-4-yl)-2-methyl-1H-imidazo[4,5-b]pyridin-1-yl)methyl)phenyl)ethanone]",IC50,[1],≤ 0.3 µM
"Cc1noc(C)c1-c1cc(N)c(=O)n(Cc2ccc(C3CO3)cc2)c1 (stereo not drawn) [Example 3, 3-amino-5-(3,5-dimethylisoxazol-4-yl)-1-(4-(oxiran-2-yl)benzyl)pyridin-2(1H)-one]",IC50,[2],0.3 to 3 µM
same,IC50,[3],3 to 30 µM
same,IC50,[4],3 to 30 µM
same,IC50,[1],≤ 0.3 µM
"Cc1noc(C)c1-c1cnc2nc(C)n(Cc3ccc(CCCl)cc3)c2c1 [Example 5, 4-(1-(4-(2-Chloroethyl)benzyl)-2-methyl-1H-imidazo[4,5-b]pyridin-6-yl)-3,5-dimethylisoxazole]",IC50,[4],0.3 to 3 µM
same,IC50,[1],≤ 0.3 µM
"Cc1noc(C)c1-c1cc(N)c2ncn(Cc3ccc(C4CO4)cc3)c2c1 (stereo not drawn) [Example 4, 6-(Dimethyl-1,2-oxazol-4-yl)-1-{[4-(oxiran-2-yl)phenyl]methyl}-1H-1,3-benzodiazol-4-amine]",IC50,[2],0.3 to 3 µM
same,IC50,[3],0.3 to 3 µM
same,IC50,[4],0.3 to 3 µM
same,"Percent proliferation relative to DMSO, 0 h",[5],41%
same,"Percent proliferation relative to DMSO, 24 h",[5],0.2%
same,"Percent proliferation relative to DMSO, 48 h",[5],15%
same,"Percent proliferation relative to DMSO, 72 h",[5],13%
same,Thermal shift: covalent binding to bromodomain protein,[6],bind covalently; also recorded: time-dependent formation of the covalent complex
same,IC50,[1],0.3 to 3 µM
"Cc1noc(C)c1-c1ccc(=O)n(Cc2ccc(C3CO3)cc2)c1 (stereo not drawn) [Example 2, 5-(dimethyl-1,2-oxazol-4-yl)-1-{[4-(oxiran-2-yl)phenyl]methyl}-1,2-dihydropyridin-2-one]",IC50,[2],3 to 30 µM
same,IC50,[3],3 to 30 µM
same,IC50,[4],3 to 30 µM
same,IC50,[1],≤ 0.3 µM
"Cc1noc(C)c1-c1ccc(=O)n(Cc2ccc(C3CO3)c(F)c2)c1 (stereo not drawn) [Example 1, 5-(Dimethyl-1,2-oxazol-4-yl)-1-(3-fluoro-4-(oxiran-2-yl)benzyl)pyridin-2(1H)-one]",IC50,[2],3 to 30 µM
same,IC50,[3],3 to 30 µM
same,IC50,[4],3 to 30 µM
same,"Percent proliferation relative to DMSO, 0 h",[5],30%
same,"Percent proliferation relative to DMSO, 24 h",[5],2%
same,"Percent proliferation relative to DMSO, 48 h",[5],10%
same,"Percent proliferation relative to DMSO, 72 h",[5],5%
same,Thermal shift: covalent binding to bromodomain protein,[6],bind covalently; also recorded: time-dependent formation of the covalent complex
same,IC50,[1],≤ 0.3 µM
"Cc1noc(C)c1-c1cnc2nc(C)n(Cc3ccc(CC4CO4)cc3)c2c1 (stereo not drawn) [Example 7, 3,5-Dimethyl-4-(2-methyl-1-(4-(oxiran-2-ylmethyl)benzyl)-1H-imidazo[4,5-b]pyridin-6-yl)isoxazole]",IC50,[1],≤ 0.3 µM
